Article PMC7156458, “Synthetic biology based construction of biological activity-related library of fungal decalin-containing diterpenoid pyrones” (Nature Communications, 2020)

Biological target: Aβ42 (Homo sapiens, UniProt P05067)
Experiment: Th-T (thioflavin-T) assay of Aβ42 aggregation
Type: biochemical
Details: for Th-T assay plate reading, mean of three wells (Supplementary Fig. 47): source data, Ab alone and No Ab as controls

Chain of Aβ42 (P05067 672-713): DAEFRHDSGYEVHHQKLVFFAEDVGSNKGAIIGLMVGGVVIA

## C=C1CCC2C3(C)CC(C=C(C)C)OC3CCC2(C)C1Cc1c(OC)oc(C)c(C)c1=O (centres unmarked) [Compound 23]
Aβ42 aggregation time course, reading M117
  Th-T fluorescence, mean of three wells: 3.821
Aβ42 aggregation time course, reading M118
  Th-T fluorescence, mean of three wells: 3.829
Aβ42 aggregation time course, reading M119
  Th-T fluorescence, mean of three wells: 3.818
Aβ42 aggregation time course, reading M120
  Th-T fluorescence, mean of three wells: 3.827
Aβ42 aggregation time course, reading M121
  Th-T fluorescence, mean of three wells: 3.807
Aβ42 aggregation time course, reading M122
  Th-T fluorescence, mean of three wells: 3.851
Aβ42 aggregation time course, reading M123
  Th-T fluorescence, mean of three wells: 3.84
Aβ42 aggregation time course, reading M124
  Th-T fluorescence, mean of three wells: 3.827
Aβ42 aggregation time course, reading M125
  Th-T fluorescence, mean of three wells: 3.803
Aβ42 aggregation time course, reading M126
  Th-T fluorescence, mean of three wells: 3.803
Aβ42 aggregation time course, reading M127
  Th-T fluorescence, mean of three wells: 3.811
Aβ42 aggregation time course, reading M128
  Th-T fluorescence, mean of three wells: 3.832
Aβ42 aggregation time course, reading M129
  Th-T fluorescence, mean of three wells: 3.806
Aβ42 aggregation time course, reading M130
  Th-T fluorescence, mean of three wells: 3.7777
Aβ42 aggregation time course, reading M131
  Th-T fluorescence, mean of three wells: 3.7932
Aβ42 aggregation time course, reading M132
  Th-T fluorescence, mean of three wells: 3.801
Aβ42 aggregation time course, reading M133
  Th-T fluorescence, mean of three wells: 3.762
Aβ42 aggregation time course, reading M134
  Th-T fluorescence, mean of three wells: 3.777
Aβ42 aggregation time course, reading M135
  Th-T fluorescence, mean of three wells: 3.785
Aβ42 aggregation time course, reading M136
  Th-T fluorescence, mean of three wells: 3.777
Supplementary Fig. 47, reading M137
  Th-T fluorescence, mean of three wells: 3.7533
Supplementary Fig. 47, reading M138
  Th-T fluorescence, mean of three wells: 3.768
Supplementary Fig. 47, reading M139
  Th-T fluorescence, mean of three wells: 3.732
Supplementary Fig. 47, reading M140
  Th-T fluorescence, mean of three wells: 3.756
Supplementary Fig. 47, reading M141
  Th-T fluorescence, mean of three wells: 3.727
Supplementary Fig. 47, reading M142
  Th-T fluorescence, mean of three wells: 3.722
Supplementary Fig. 47, reading M143
  Th-T fluorescence, mean of three wells: 3.7233
Supplementary Fig. 47, reading M144
  Th-T fluorescence, mean of three wells: 3.718
Supplementary Fig. 47, reading M145
  Th-T fluorescence, mean of three wells: 3.718
Supplementary Fig. 47 source data, measurement M37 of time course
  Th-T fluorescence, mean of three wells: 3.91
Supplementary Fig. 47 source data, measurement M38 of time course
  Th-T fluorescence, mean of three wells: 3.88
Supplementary Fig. 47 source data, measurement M39 of time course
  Th-T fluorescence, mean of three wells: 3.926
Supplementary Fig. 47 source data, measurement M40 of time course
  Th-T fluorescence, mean of three wells: 3.945
Supplementary Fig. 47 source data, measurement M41 of time course
  Th-T fluorescence, mean of three wells: 3.951
Supplementary Fig. 47 source data, measurement M42 of time course
  Th-T fluorescence, mean of three wells: 3.943
Supplementary Fig. 47 source data, measurement M43 of time course
  Th-T fluorescence, mean of three wells: 3.96
Supplementary Fig. 47 source data, measurement M44 of time course
  Th-T fluorescence, mean of three wells: 3.975
Supplementary Fig. 47 source data, measurement M45 of time course
  Th-T fluorescence, mean of three wells: 3.993
Supplementary Fig. 47 source data, measurement M46 of time course
  Th-T fluorescence, mean of three wells: 3.9875
Supplementary Fig. 47 source data, measurement M47 of time course
  Th-T fluorescence, mean of three wells: 4.0057
Supplementary Fig. 47 source data, measurement M48 of time course
  Th-T fluorescence, mean of three wells: 4.03
Supplementary Fig. 47 source data, measurement M49 of time course
  Th-T fluorescence, mean of three wells: 4.026
Supplementary Fig. 47 source data, measurement M50 of time course
  Th-T fluorescence, mean of three wells: 3.972
Supplementary Fig. 47 source data, measurement M51 of time course
  Th-T fluorescence, mean of three wells: 4.006
Supplementary Fig. 47 source data, measurement M52 of time course
  Th-T fluorescence, mean of three wells: 4
Supplementary Fig. 47 source data, measurement M53 of time course
  Th-T fluorescence, mean of three wells: 3.995
Supplementary Fig. 47 source data, measurement M54 of time course
  Th-T fluorescence, mean of three wells: 4.005
Supplementary Fig. 47 source data, measurement M55 of time course
  Th-T fluorescence, mean of three wells: 4.01
Supplementary Fig. 47 source data, measurement M56 of time course
  Th-T fluorescence, mean of three wells: 4.026
Measurement M1
  Th-T assay plate reading, mean of three wells (Supplementary Fig. 47): 0.1917
Measurement M2
  Th-T assay plate reading, mean of three wells (Supplementary Fig. 47): 0.1872
Measurement M3
  Th-T assay plate reading, mean of three wells (Supplementary Fig. 47): 0.2017
Measurement M4
  Th-T assay plate reading, mean of three wells (Supplementary Fig. 47): 0.2278
Measurement M5
  Th-T assay plate reading, mean of three wells (Supplementary Fig. 47): 0.2368
Measurement M6
  Th-T assay plate reading, mean of three wells (Supplementary Fig. 47): 0.2919
Measurement M7
  Th-T assay plate reading, mean of three wells (Supplementary Fig. 47): 0.3712
Measurement M8
  Th-T assay plate reading, mean of three wells (Supplementary Fig. 47): 0.4061
Measurement M9
  Th-T assay plate reading, mean of three wells (Supplementary Fig. 47): 0.4563
Measurement M10
  Th-T assay plate reading, mean of three wells (Supplementary Fig. 47): 0.5903
Measurement M11
  Th-T assay plate reading, mean of three wells (Supplementary Fig. 47): 0.9948
Measurement M12
  Th-T assay plate reading, mean of three wells (Supplementary Fig. 47): 1.768
Measurement M13
  Th-T assay plate reading, mean of three wells (Supplementary Fig. 47): 2.41
Measurement M14
  Th-T assay plate reading, mean of three wells (Supplementary Fig. 47): 2.789
Measurement M15
  Th-T assay plate reading, mean of three wells (Supplementary Fig. 47): 2.988
Measurement M16
  Th-T assay plate reading, mean of three wells (Supplementary Fig. 47): 3.116
Reading M17, Supplementary Fig. 47 source data
  Th-T fluorescence, mean of three wells: 3.2228
Reading M18, Supplementary Fig. 47 source data
  Th-T fluorescence, mean of three wells: 3.274
Reading M19, Supplementary Fig. 47 source data
  Th-T fluorescence, mean of three wells: 3.356
Reading M20, Supplementary Fig. 47 source data
  Th-T fluorescence, mean of three wells: 3.42
Reading M21, Supplementary Fig. 47 source data
  Th-T fluorescence, mean of three wells: 3.466
Reading M22, Supplementary Fig. 47 source data
  Th-T fluorescence, mean of three wells: 3.5211
Reading M23, Supplementary Fig. 47 source data
  Th-T fluorescence, mean of three wells: 3.558
Reading M24, Supplementary Fig. 47 source data
  Th-T fluorescence, mean of three wells: 3.581
Reading M25, Supplementary Fig. 47 source data
  Th-T fluorescence, mean of three wells: 3.61
Reading M26, Supplementary Fig. 47 source data
  Th-T fluorescence, mean of three wells: 3.64
Reading M27, Supplementary Fig. 47 source data
  Th-T fluorescence, mean of three wells: 3.697
Reading M28, Supplementary Fig. 47 source data
  Th-T fluorescence, mean of three wells: 3.7304
Reading M29, Supplementary Fig. 47 source data
  Th-T fluorescence, mean of three wells: 3.755
Reading M30, Supplementary Fig. 47 source data
  Th-T fluorescence, mean of three wells: 3.765
Reading M31, Supplementary Fig. 47 source data
  Th-T fluorescence, mean of three wells: 3.799
Reading M32, Supplementary Fig. 47 source data
  Th-T fluorescence, mean of three wells: 3.833
Reading M33, Supplementary Fig. 47 source data
  Th-T fluorescence, mean of three wells: 3.798
Reading M34, Supplementary Fig. 47 source data
  Th-T fluorescence, mean of three wells: 3.8608
Reading M35, Supplementary Fig. 47 source data
  Th-T fluorescence, mean of three wells: 3.851
Reading M36, Supplementary Fig. 47 source data
  Th-T fluorescence, mean of three wells: 3.863
Time course, reading M57
  Th-T fluorescence, mean of three wells: 4.004
Time course, reading M58
  Th-T fluorescence, mean of three wells: 4.031
Time course, reading M59
  Th-T fluorescence, mean of three wells: 4.01
Time course, reading M60
  Th-T fluorescence, mean of three wells: 3.981
Time course, reading M61
  Th-T fluorescence, mean of three wells: 4.001
Time course, reading M62
  Th-T fluorescence, mean of three wells: 4.022
Time course, reading M63
  Th-T fluorescence, mean of three wells: 4.022
Time course, reading M64
  Th-T fluorescence, mean of three wells: 3.993
Time course, reading M65
  Th-T fluorescence, mean of three wells: 3.998
Time course, reading M66
  Th-T fluorescence, mean of three wells: 4.007
Time course, reading M67
  Th-T fluorescence, mean of three wells: 3.974
time-course reading M97, Supplementary Fig. 47 source data
  Th-T fluorescence, mean of three wells: 3.915
time-course reading M98, Supplementary Fig. 47 source data
  Th-T fluorescence, mean of three wells: 3.9
time-course reading M99, Supplementary Fig. 47 source data
  Th-T fluorescence, mean of three wells: 3.901
time-course reading M100, Supplementary Fig. 47 source data
  Th-T fluorescence, mean of three wells: 3.914
time-course reading M101, Supplementary Fig. 47 source data
  Th-T fluorescence, mean of three wells: 3.9074
time-course reading M102, Supplementary Fig. 47 source data
  Th-T fluorescence, mean of three wells: 3.878
time-course reading M103, Supplementary Fig. 47 source data
  Th-T fluorescence, mean of three wells: 3.8886
time-course reading M104, Supplementary Fig. 47 source data
  Th-T fluorescence, mean of three wells: 3.914
time-course reading M105, Supplementary Fig. 47 source data
  Th-T fluorescence, mean of three wells: 3.865
time-course reading M106, Supplementary Fig. 47 source data
  Th-T fluorescence, mean of three wells: 3.9
time-course reading M107, Supplementary Fig. 47 source data
  Th-T fluorescence, mean of three wells: 3.909
time-course reading M108, Supplementary Fig. 47 source data
  Th-T fluorescence, mean of three wells: 3.872
time-course reading M109, Supplementary Fig. 47 source data
  Th-T fluorescence, mean of three wells: 3.882
time-course reading M110, Supplementary Fig. 47 source data
  Th-T fluorescence, mean of three wells: 3.8573
time-course reading M111, Supplementary Fig. 47 source data
  Th-T fluorescence, mean of three wells: 3.873
time-course reading M112, Supplementary Fig. 47 source data
  Th-T fluorescence, mean of three wells: 3.8761
time-course reading M113, Supplementary Fig. 47 source data
  Th-T fluorescence, mean of three wells: 3.855
time-course reading M114, Supplementary Fig. 47 source data
  Th-T fluorescence, mean of three wells: 3.858
time-course reading M115, Supplementary Fig. 47 source data
  Th-T fluorescence, mean of three wells: 3.833
time-course reading M116, Supplementary Fig. 47 source data
  Th-T fluorescence, mean of three wells: 3.836
